# Test results as given in patent US9920069B2, “Compounds for treatment of fluoroquinolone-resistant bacteria” (The Board of Trustees of the University of Illinois, priority 2014, dated 2018).
# Read-outs that look alike come from different tables or passages of the source. Marks after values point to notes of the source that are not given here.
# Tests used:
# [1] = tested on: S. aureus 29213 (WT GyrA and WT ParC); test: microbe, parasite or virus in culture; assay type: cell-based; conditions: Staphylococcus aureus; WT GyrA and WT ParC; read-out: MIC against S. aureus 29213
# Experimental: (§1) Susceptibility testing was performed in triplicate using the microdilution broth method as outlined by the Clinical and Laboratory Standards Institute CLSI^52. MH broth was used.
# physchem [2] = conditions: organic solvent or mixture, thermodynamic from solid
# physchem [3] = conditions: for Solubility in pH 7.4 PBS: three replicates ± SEM
# Experimental: Enough PBS was added to make a 1 mg/mL solution. Compounds were then assessed by LC-MS and compared to a calibration curve to determine the solubility. […] Data shown is from three independent replicates±SEM. […] Between DMSO additions, the vial was vortexed and sonicated.
# The compound was vortexed for ˜30 seconds before being placed into a bath sonicator (Cole Parmer, ultrasonic cleaner) for 1 h. […] The tubes were vortexed again for 30 s before being centrifuged at maximum speed (13,000×g) for 10 minutes. The supernatant was then filtered through a 0.22 μm syringe filter (Millipore Millex MP). […] Three independent replicates of each compound were performed. A calibration curve for each compound was generated from 1-400 μM by dissolving the compound in DMSO and making dilutions of the stock in DMSO. […] The concentration of the samples was calculated based on the calibration curves.
# [4] = tested on: MRSA clinical isolate SAU.2996; test: MIC, microdilution broth; assay type: cell-based, S. aureus; conditions: Staphylococcus aureus, MRSA, read-out: MIC
# Experimental: as §1
# [5] = tested on: MRSA clinical isolate SAU.3021; test: MIC, microdilution broth; assay type: cell-based, S. aureus; conditions: Staphylococcus aureus, MRSA, read-out: MIC
# Experimental: as §1
# [6] = tested on: MRSA clinical isolate SAU.3025; test: MIC, microdilution broth; assay type: cell-based, S. aureus; conditions: Staphylococcus aureus
# Experimental: as §1
# [7] = tested on: MRSA clinical isolate SAU.419; test: MIC, microdilution broth; assay type: cell-based, S. aureus; conditions: Staphylococcus aureus, MRSA, read-out: MIC
# Experimental: as §1
# [8] = tested on: MRSA clinical isolate SAU.446; test: MIC, microdilution broth; assay type: cell-based, S. aureus; conditions: Staphylococcus aureus
# Experimental: as §1
# [9] = tested on: MRSA clinical isolate SAU.555; test: MIC, microdilution broth; assay type: cell-based, S. aureus; conditions: Staphylococcus aureus
# Experimental: as §1
# [10] = tested on: MRSA clinical isolate SAU.669; test: MIC, microdilution broth; assay type: cell-based, S. aureus; conditions: Staphylococcus aureus
# Experimental: as §1
# [11] = tested on: MRSA clinical isolate SAU.494; test: microbe, parasite or virus in culture; assay type: cell-based, S. aureus; conditions: Staphylococcus aureus
# Experimental: as §1
# human topoisomerase II = target: T1, human topoisomerase II (Homo sapiens, UniProt P11388); test: Human topoisomerase decatenation assay; assay type: biochemical; conditions: lowest inhibiting / highest without significant inhibition
# T1 construct: purchased Inspiralis
# Experimental: The decatenation assay was performed with the Human Topo II Decatenation Assay Kit (Inspiralis) according to the manufacturer's instructions with minor modifications. First, a master mix was made containing 2 μL 10× assay buffer (500 mM Tris.HCl, pH 7.5, 1250 mM NaCl, 100 mM MgCl2, 50 mM DTT, 1000 μg/mL albumin), 0.67 μL 30 mM ATP, 1.34 μL 0.1 ng/μL kDNA, and 14.3 μL of nuclease free water per sample is made. DMSO or 30× compound is added to a 0.5 mL Eppendorf tube (0.67 μL per tube). The master mix is then added to each tube (18.3 μL per tube). Finally, 1 U of human topoisomerase (1 μL of 1 U/μL stock) is added to each tube for a final volume of 20 μL. The tubes are then incubated at 37° C. for 30 min. Reactions are stopped by the addition of 20 μL of 24:1 chloroform:isoamyl alcohol and 20 μL of stop dye (40% sucrose, 1 mM EDTA, 100 mM TrisHCl pH 7.5, 0.5 μg/mL bromophenol blue). Samples were run on 1% agarose gels containing 0.5 μg/mL ethidium bromide for 1 h at 110V or until the dye front was approximately halfway down the gel. Gels were imaged on a Molecular Imager Gel Doc XR+ (Biorad).
# [12] = subcutaneously, orally, or by IP injection; cited from earlier work
# [13] = tested on: K. pneuomoniae, S. aureus, or M. tuberculosis; conditions: mice infected with various bacteria; cited from earlier work
# Enterococcus ATCC 29212 = test: organism not typed; assay type: cell-based, E. faecalis
# Enterococcus ATCC 19433 = test: organism not typed; assay type: cell-based, E. faecalis
# [14] = tested on: low level CIP resistant strains of S. aureus ATCC 29213 (ParC mutation); test: microbe, parasite or virus in culture; assay type: cell-based; conditions: Staphylococcus aureus, ATCC29213
# A. baumannii KB349 = conditions: starred: previously determined; cited from earlier work
# A. baumannii KB304 = conditions: starred: previously determined; cited from earlier work
# [15] = tested on: MRSA clinical isolate SAU.1118; test: MIC, microdilution broth; assay type: cell-based, S. aureus; conditions: Staphylococcus aureus
# Experimental: as §1
# [16] = tested on: MRSA clinical isolate SAU.3024; test: MIC, microdilution broth; assay type: cell-based, S. aureus; conditions: Staphylococcus aureus
# Experimental: as §1
# [17] = tested on: MRSA clinical isolate SAU.489; test: microbe, parasite or virus in culture; assay type: cell-based, S. aureus; conditions: Staphylococcus aureus
# Experimental: as §1
# [18] = tested on: MRSA clinical isolate SAU.491; test: microbe, parasite or virus in culture; assay type: cell-based, S. aureus; conditions: Staphylococcus aureus
# Experimental: as §1
# [19] = tested on: MRSA clinical isolate SAU.492; test: microbe, parasite or virus in culture; assay type: cell-based, S. aureus; conditions: Staphylococcus aureus
# Experimental: as §1
# [20] = tested on: MRSA clinical isolate SAU.493; test: microbe, parasite or virus in culture; assay type: cell-based, S. aureus; conditions: Staphylococcus aureus
# Experimental: as §1
# [21] = tested on: MRSA clinical isolate SAU.495; test: microbe, parasite or virus in culture; assay type: cell-based, S. aureus; conditions: Staphylococcus aureus
# Experimental: as §1
# [22] = tested on: MRSA clinical isolate SAU.496; test: microbe, parasite or virus in culture; assay type: cell-based, S. aureus; conditions: Staphylococcus aureus
# Experimental: as §1
# [23] = tested on: MRSA clinical isolate SAU.708; test: microbe, parasite or virus in culture; assay type: cell-based, S. aureus; conditions: Staphylococcus aureus
# Experimental: as §1
# [24] = tested on: MRSA clinical isolate SAU.709; test: microbe, parasite or virus in culture; assay type: cell-based, S. aureus; conditions: Staphylococcus aureus
# Experimental: as §1
# [25] = tested on: MRSA clinical isolate SAU.710; test: microbe, parasite or virus in culture; assay type: cell-based, S. aureus; conditions: Staphylococcus aureus
# Experimental: as §1
# [26] = Pharmacokinetic assessment, serum by HPLC; assay type: in vivo, C57BL/6 mice; conditions: mouse serum
# Experimental: FIG. 13. Pharmacokinetic analysis of DNM, DNM-2, and DNM-3. C57/BL6 mice were treated with 50 mg kg^−1 DNM, DNM-2, or DNM-3 via oral gavage. After the indicated time points (15, 30, 60, 120, 240, and 480 min), mice were sacrificed and the serum concentrations of DNM, DNM-2, and DNM-3 was determined by HPLC.
# The animal studies (PK, in vivo toxicity and in vivo efficacy) were carried out in strict accordance with the recommendations in the Guide for the Care and Use of Laboratory Animals of the National Institutes of Health. […] In these studies, 10-12 week old female C57BL/6 mice purchased from Charles River were used. DNM, DNM-2, and DNM-3 were formulated as slurries at 8.3 mg mL^−1 in 25% Cremophor RH40/water (v/v). Before beginning the pharmacokinetic assessment, mice were first tested for their ability to tolerate the DNM, DNM-2, and DNM-3 at 50 mg kg^−1 (p.o.). […] At specified time points, mice were sacrificed and blood was collected, centrifuged, and the serum was frozen at −80° C. until analysis. The proteins in a 50 μL aliquot of serum were precipitated by the addition of 50 μL of acetonitrile and the sample was centrifuged to remove the proteins. Serum concentrations of DNM, DNM-2, and DNM-3 were determined by HPLC. PK parameters were determined using GraphPad Prism Version 5.00 for Windows.
# T1 sequence (P11388 whole entry): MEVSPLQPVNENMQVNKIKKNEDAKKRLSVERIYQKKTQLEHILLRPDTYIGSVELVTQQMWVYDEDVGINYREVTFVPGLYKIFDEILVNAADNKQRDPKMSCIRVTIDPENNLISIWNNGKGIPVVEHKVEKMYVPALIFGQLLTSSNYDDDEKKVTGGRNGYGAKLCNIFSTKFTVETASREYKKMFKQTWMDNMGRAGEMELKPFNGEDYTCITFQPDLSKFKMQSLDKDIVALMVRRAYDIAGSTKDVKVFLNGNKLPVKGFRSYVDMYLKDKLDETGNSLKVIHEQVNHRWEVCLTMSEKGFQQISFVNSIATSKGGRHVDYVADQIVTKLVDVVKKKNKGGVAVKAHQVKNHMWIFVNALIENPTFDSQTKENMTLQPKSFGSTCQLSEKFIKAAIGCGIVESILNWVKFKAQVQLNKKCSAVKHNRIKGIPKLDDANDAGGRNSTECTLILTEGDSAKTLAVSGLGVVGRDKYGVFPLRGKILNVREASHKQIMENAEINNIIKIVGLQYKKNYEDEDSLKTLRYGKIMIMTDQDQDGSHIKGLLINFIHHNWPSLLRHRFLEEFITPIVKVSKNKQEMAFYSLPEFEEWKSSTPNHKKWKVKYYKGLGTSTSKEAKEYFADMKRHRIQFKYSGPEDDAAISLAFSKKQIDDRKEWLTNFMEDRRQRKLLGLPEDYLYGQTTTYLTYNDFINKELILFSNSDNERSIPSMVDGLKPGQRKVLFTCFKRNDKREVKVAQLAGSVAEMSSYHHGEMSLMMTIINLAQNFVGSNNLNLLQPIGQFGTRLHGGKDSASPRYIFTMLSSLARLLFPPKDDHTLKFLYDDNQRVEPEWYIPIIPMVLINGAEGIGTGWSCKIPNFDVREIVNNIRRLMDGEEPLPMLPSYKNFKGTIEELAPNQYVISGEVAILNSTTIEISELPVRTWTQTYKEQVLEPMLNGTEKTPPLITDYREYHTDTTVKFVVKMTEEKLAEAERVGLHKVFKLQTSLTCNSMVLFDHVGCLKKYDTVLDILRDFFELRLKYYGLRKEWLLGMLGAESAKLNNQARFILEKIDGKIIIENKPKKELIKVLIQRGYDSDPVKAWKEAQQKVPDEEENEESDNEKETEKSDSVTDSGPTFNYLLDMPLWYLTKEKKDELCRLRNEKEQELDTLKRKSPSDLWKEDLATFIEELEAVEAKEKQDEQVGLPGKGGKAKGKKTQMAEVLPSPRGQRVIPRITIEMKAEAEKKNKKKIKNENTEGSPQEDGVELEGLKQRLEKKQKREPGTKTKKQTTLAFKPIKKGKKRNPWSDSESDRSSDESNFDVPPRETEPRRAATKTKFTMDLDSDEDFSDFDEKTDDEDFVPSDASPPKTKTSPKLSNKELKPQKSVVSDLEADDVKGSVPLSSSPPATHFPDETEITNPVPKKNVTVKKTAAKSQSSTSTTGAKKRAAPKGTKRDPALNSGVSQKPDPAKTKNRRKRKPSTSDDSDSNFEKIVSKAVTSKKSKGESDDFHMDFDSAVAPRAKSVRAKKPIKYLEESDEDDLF
smiles,measurement,setting,value
CCCCCn1c(=O)cc(C)c2cc3c(C)cc(=O)n4c3c(c21)OC4 [Compound 9],MIC,[1],32 µg/mL
same,solubility,physchem [2],26.9 mM
CCc1cc(=O)n(C)c2c3c4c(cc12)c(CC)cc(=O)n4CO3 [Compound 13],Solubility in pH 7.4 PBS,physchem [3],48 μM
same,MIC,[1],> 32 µg/mL
same,solubility,physchem [2],5.2 mM
CCCc1cc(=O)n(C)c2c3c4c(cc12)c(C)cc(=O)n4CO3 [Compound 7],MIC,[1],16 µg/mL
same,solubility,physchem [2],5.8 mM
CCCCCCn1c(=O)cc(C)c2cc3c(C)cc(=O)n4c3c(c21)OC4 [Compound 10],MIC,[1],> 64 µg/mL
same,solubility,physchem [2],56.7 mM
"CO[C@@H]1[C@@H](OC(N)=O)[C@@H](O)[C@H](Oc2ccc3c(O)c(NC(=O)c4ccc(O)c(CC=C(C)C)c4)c(=O)oc3c2C)OC1(C)C [Novo, Novobiocin]",MIC,[4],0.5 µg/mL
same,MIC,[5],0.25 µg/mL
same,MIC,[6],0.25 µg/mL
same,MIC,[7],0.25 µg/mL
same,MIC,[8],0.5 µg/mL
same,MIC,[9],0.25 µg/mL
same,MIC,[10],0.5 µg/mL
same,MIC,[11]; read-out: MIC,0.125 µg/mL
CCc1cc(=O)n(C)c2c3c4c(cc12)c(C)cc(=O)n4CO3 [Compound 4],Solubility in pH 7.4 PBS,physchem [3],53 μM
same,MIC,[1],8 µg/mL
same,solubility,physchem [2],4.7 mM
CCCc1cc(=O)n(C)c2c3c4c(cc12)c(CCC)cc(=O)n4CO3 [Compound 14],solubility at 1 h,"physchem [3]; pH 7.4, aqueous buffer, thermodynamic from solid",< 0.001 mM
same,MIC,[1],> 32 µg/mL
same,solubility,physchem [2],18.3 mM
Cc1cc(=O)n2c3c(c4c(cc13)c(C)cc(=O)n4CC(C)(C)C)OC2 [Compound 12],MIC,[1],32 µg/mL
same,solubility,physchem [2],38.7 mM
Cc1cc(=O)n2c3c(c4c(cc13)c(C)cc(=O)n4CC(C)C)OC2 [Compound 11],MIC,[1],> 32 µg/mL
same,solubility,physchem [2],7.1 mM
CCCCn1c(=O)cc(CCC)c2cc3c(CCC)cc(=O)n4c3c(c21)OC4 [Compound 15],MIC,[1],> 32 µg/mL
same,solubility,physchem [2],4.2 mM
"COc1cccc2c1C(=O)c1c(O)c3c(c(O)c1C2=O)C[C@@](O)(C(=O)CO)C[C@@H]3O[C@H]1C[C@H](N)[C@H](O)[C@H](C)O1 [doxorubicin, reference compound]",concentration inhibiting human topoisomerase II,human topoisomerase II,3 µM
Cc1cc(=O)n2c3c(c4c(cc13)c(CO)cc(=O)n4C)OC2 [nybomycin],tolerability in mice,[12],well tolerated
same,activity in infected mice,[13],no activity
CCCc1cc(=O)n2c3c(c4c(cc13)c(C)cc(=O)n4C)OC2 [Compound 6],MIC,[1],16 µg/mL
same,solubility,physchem [2],6.4 mM
Cc1cc(=O)n(C)c2c3c4c(cc12)c(C)cc(=O)n4C(C)O3 (centres unmarked) [Compound 5],MIC,[1],4 µg/mL
same,solubility,physchem [2],3.4 mM
"O=C(O)c1cn(C2CC2)c2cc(N3CCNCC3)c(F)cc2c1=O [CIP, ciprofloxacin, reference compound]",MIC,Enterococcus ATCC 29212,0.5 to 2 µg/mL
same,CIP (S/I/R),Enterococcus ATCC 29212; ATCC 29212,S (sensitive (S) if it had an MIC≤4 μg mL^−1)
same,MIC,Enterococcus ATCC 19433,2 µg/mL
same,CIP (S/I/R),Enterococcus ATCC 19433; ATCC 19433,S (sensitive (S) if it had an MIC≤4 μg mL^−1)
same,MIC,[14],4 to 8 µg/mL
same,CIP MIC,A. baumannii KB349,>32* μg mL^−1
same,CIP MIC,A. baumannii KB304,24* ^ μg mL^−1
"CN[C@H](CC(C)C)C(=O)N[C@H]1C(=O)N[C@@H](CC(N)=O)C(=O)N[C@H]2C(=O)N[C@H]3C(=O)N[C@H](C(=O)N[C@H](C(=O)O)c4cc(O)cc(O)c4-c4cc3ccc4O)[C@H](O)c3ccc(c(Cl)c3)Oc3cc2cc(c3O[C@@H]2O[C@H](CO)[C@@H](O)[C@H](O)[C@H]2O[C@H]2C[C@](C)(N)[C@H](O)[C@H](C)O2)Oc2ccc(cc2Cl)[C@H]1O [VANC, vancomycin, reference compound]",MIC,[1],1 µg/mL
same,MIC,[15],2 µg/mL
same,MIC,[4],1 µg/mL
same,MIC,[5],1 µg/mL
same,MIC,[16],2 µg/mL
same,MIC,[17],2 µg/mL
same,MIC,[18],2 µg/mL
same,MIC,[19],1 µg/mL
same,MIC,[20],1 µg/mL
same,MIC,[11],1 µg/mL
same,MIC,[21],2 µg/mL
same,MIC,[22],1 µg/mL
same,MIC,[23],2 µg/mL
same,MIC,[24],1 µg/mL
same,MIC,[25],2 µg/mL
CCc1cc(=O)n2c3c(c4c(cc13)c(C)cc(=O)n4C)OC2 [DNM-3],Solubility in pH 7.4 PBS,physchem [3],27 μM
same,MIC,[1],8 µg/mL
same,AUC,[26]; 50 mg kg^−1 oral dose,4000 ng·h/mL
same,Cmax / peak serum concentration,[26]; 50 mg kg^−1 oral dose,1260 ng/mL
same,Cmax,"[26]; 50 mg kg^−1 oral dose, read-out: Cmax / peak serum concentration",4.3 µM
same,AUC,[26]; 50 mg kg^−1 oral gavage,4000 ng·h/mL
same,Cmax,[26]; 50 mg kg^−1 oral gavage,1260 ng/mL
same,Tmax,[26]; 50 mg kg^−1 oral gavage,1.1 h
same,t1/2,[26]; 50 mg kg^−1 oral gavage,1.2 h
same,solubility,physchem [2],1.3 mM
